One data set has as its target T1, A3 receptor in the mouse (Mus musculus, UniProt Q61618).
T1 sequence (Q61618 1-319): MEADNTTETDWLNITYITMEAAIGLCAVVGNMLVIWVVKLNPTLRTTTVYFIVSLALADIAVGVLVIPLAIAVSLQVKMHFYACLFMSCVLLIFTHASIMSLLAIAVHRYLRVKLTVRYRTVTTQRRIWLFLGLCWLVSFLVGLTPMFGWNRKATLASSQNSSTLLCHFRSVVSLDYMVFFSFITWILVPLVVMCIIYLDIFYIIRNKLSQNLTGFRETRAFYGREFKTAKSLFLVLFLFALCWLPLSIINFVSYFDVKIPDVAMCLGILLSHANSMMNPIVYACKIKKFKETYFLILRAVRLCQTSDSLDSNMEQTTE
Nature of the data set: affinity at mouse A3 receptor. Format: binding. The method, then:
Similar competition binding assays may be conducted using HEK293 cell membranes expressing mARs using [^125I]I-AB-MECA to label A1 or A3ARs and [^3H]CGS21680 to label A2AARs. IC50 values were converted to Ki values using known methods. Nonspecific binding was determined in the presence of 100 μM NECA.

Data set [1] has as its system traumatic brain injury (TBI) in mice. Kind of data set: mouse traumatic brain injury (TBI) model. The note with it: in vivo. As for the experimental part: Animals and traumatic brain injury (TBI): TBI is performed with a controlled closed skull injury model as described in Talley-Watts et al. 2012 (J. Neurotrauma 30, 55-66). Following the method described therein, a pneumatic impact device is used to generate a moderate TBI leaving the skull and dura matter intact. To achieve this, C57BL/6 mice are anesthetized with isoflurane (3% induction, 1% maintenance) in 100% oxygen. A body temperature of 37° C. is maintained using a temperature-controlled heated surgical table. A small midline incision is made on the scalp using aseptic surgical techniques. A 5 mm stainless steel disc is positioned on the skull and fixed using superglue on the right parietal bone between bregma and lamda over the somatosensory cortex. The mouse is then positioned on a stage directly under the pneumatic impact tip. […] Mice are placed in a Thermo-Intensive Care Unit (Braintree Scientific model FV-1; 37° C.; 27% O2) and monitored until fully awake and moving freely. […]
Western Blot Analysis for GFAP: At selected survival times, mice are anesthetized under isoflurane and sacrificed. […] The homogenate is transferred to a 2 mL tube and centrifuged at 1000 g for 10 minutes at 4° C. and the supernatant is collected and analyzed. Protein concentration is determined by the BCA assay using a 1:50 dilution. […]

A short description of data set [2]: brain tissue binding (free fraction). Format: in vitro ADME, mouse. The text has this: Example 3 of U.S. Pat. No. 9,789,131, which is incorporated herein by reference, describes assays for determining the plasma and brain free fraction of certain compounds such as I-1. Compounds described herein may be evaluated using such assays or similar variants thereof.

Molecules are shown by their SMILES. Entries after “also recorded” stand apart in the source; their conditions may differ.

As for `CSc1nc(N)c2ncn([C@H]3C(O)C(O)[C@]4(CO)C[C@H]34)c2n1` (stereo in doubt) [Compound I-1], the “difference in affinity between I-1 and Cl-IB-MECA” value on A3 receptor in the mouse is reported as “approximately 25,000 fold”. Besides, the “efficacy in mouse TBI model” value in data set [1] is “effective; also recorded: significant efficacy”. Further, the “free (unbound) fraction in brain” value in data set [2] (mouse brain tissue) came to 0.13. The “fraction available to interact with the A3 receptor, versus Cl-IB-IMECA” value in data set [2] (mouse models) was “at least 1000 fold”.

The values are drawn from patent publication US20250177405A1, “METHODS OF TREATING NEUROLOGICAL AND CARDIOVASCULAR CONDITIONS” (ASTROCYTE PHARMACEUTICALS, INC., priority 2021, published 2025).
